Results taken from PubChem BioAssay (NCI).
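Step 1: Grow cells in 96-well plates. Step 2: Expose to compound for 48 hours at 5 concentrations. Step 3: Interpolate endpoints linearly; if unreached, use highest concentration. TGI marks complete inhibition of growth.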

Experiments:
Test in all cases: DTP human tumour cell line panel, 48 h
MDA-N = tested on: MDA-N
KM12 colon = tested on: KM12 colon
SNB-75 CNS = tested on: SNB-75 CNS
NCI-H23 lung = tested on: NCI-H23 lung
CCRF-CEM leukemia = tested on: CCRF-CEM leukemia
UO-31 renal = tested on: UO-31 renal
BT-549 breast = tested on: BT-549 breast
NCI-H226 lung = tested on: NCI-H226 lung
SN12C renal = tested on: SN12C renal
ACHN renal = tested on: ACHN renal
U251 CNS = tested on: U251 CNS
SNB-19 CNS = tested on: SNB-19 CNS
HCC-2998 colon = tested on: HCC-2998 colon
SW-620 colon = tested on: SW-620 colon
NCI/ADR-RES ovarian = tested on: NCI/ADR-RES ovarian
CAKI-1 renal = tested on: CAKI-1 renal

Row | Compound | TGI (MDA-N) [µM] | TGI (KM12 colon) [µM] | TGI (SNB-75 CNS) [µM] | TGI (NCI-H23 lung) [µM] | TGI (CCRF-CEM leukemia) [µM] | TGI (UO-31 renal) [µM] | TGI (BT-549 breast) [µM] | TGI (NCI-H226 lung) [µM] | TGI (SN12C renal) [µM] | TGI (ACHN renal) [µM] | TGI (U251 CNS) [µM] | TGI (SNB-19 CNS) [µM] | TGI (HCC-2998 colon) [µM] | TGI (SW-620 colon) [µM] | TGI (NCI/ADR-RES ovarian) [µM] | TGI (CAKI-1 renal) [µM]
1 | CN1CCN(C(=S)N(C(=O)c2ccco2)c2ccccc2)CC1 | > 100 | > 100 | > 100 | > 100 | > 100 | > 100 | > 100 | > 100 | > 100 | > 100 | > 100 | > 100 | > 100 | > 100 |  | 
2 | O=c1cc(CC(O)(C(F)(F)Cl)C(F)(F)Cl)[nH]n1-c1ccccc1 |  | > 100 | > 100 | > 100 | > 100 | > 100 |  | > 100 | > 100 | > 100 | > 100 | > 100 | > 100 | > 100 | > 100 | 
3 | CC(=O)OCC12C(OC(C)=O)C[C@@H](C)C3(CC(c4ccoc4)OC3=O)C1CCC(O)C21CO1 (some centres undefined) | > 100 | > 100 | > 100 | > 100 |  | > 100 | > 100 | > 100 | > 100 | > 100 | > 100 | > 100 | > 100 |  | > 100 | > 100
4 | COc1cc(C(C)c2cc3c(cc2OCCCCOc2cc4c(cc2C(C)c2cc(OC)c(OC)c(OC)c2)OCO4)OCO3)cc(OC)c1OC (centres undefined) |  | > 100 | 69.7 | > 100 | > 100 | > 100 |  | 80.6 | > 100 | > 100 | > 100 | > 100 | > 100 | 96 |  | > 100
5 | C=C1CC(Cn2cc(C)c(=O)[nH]c2=O)(c2ccc(-c3ccccc3)cc2)OC1=O (centres undefined) | 2.75 | 7.36 | 21.8 | 3.99 |  | 11.5 | 3.08 | 35.5 | 8.26 | 6.65 | 16.1 | 27.4 | 5.23 | 1.91 | 13.8 | 4.94
6 | Oc1c(-c2ccccc2)sc2ccccc12 |  | 75.6 | 52.1 | 77.5 | 62.5 | 84.6 | 89.4 | 64.4 |  | > 100 | > 100 | > 100 | 39 | > 100 | > 100 | 13.6
7 | CSc1nc2c(N)ncnc2n1C | > 100 | > 100 | > 100 |  | > 100 | > 100 |  | > 100 | > 100 | > 100 | > 100 | > 100 | > 100 | > 100 | > 100 | > 100
8 | CC(=O)OC1CC2(c3ccccc3)C(=O)c3ccccc3N2O1 (centres undefined) |  |  | > 100 | > 100 | > 100 | > 100 |  | > 100 | > 100 | > 100 | > 100 | > 100 | > 100 | > 100 |  | 
9 | O=C(OCC12CC3CC(CC(C3)C1)C2)c1ccc(NCc2cc(O)ccc2O)cc1 | 16.7 | 4.52 | 7.23 | 3.88 |  | 1.96 | 1.25 | 6.71 | 18.7 | 7.04 | 5.33 | 11 | 4.02 | > 25.7 | 8.97 | 2.06
10 | CC(C)[Si](OC1=C(C(=O)N(C)c2ccccc2Cl)CCC1)(C(C)C)C(C)C | 38.8 | 50.2 | 29.1 | 29.8 |  | 29.4 | 29.8 | 40.3 | 31.6 | 36.3 | 31.1 | 30 |  | 46.9 | 30.4 | 36.5
11 | COc1ccc(C(C2C(=O)N(C)C(=O)N(C)C2=O)C(F)(F)C(=O)N(C)C)cc1 (centres undefined) |  | > 100 | > 100 | > 100 | > 100 | > 100 | > 100 | > 100 |  | > 100 | > 100 | > 100 | > 100 | > 100 | > 100 | > 100
12 | O=c1c2cc(Br)cc(Br)c2[nH]c(=S)n1-c1ccccc1 |  | > 100 | > 100 | > 100 | > 100 | > 100 |  | > 100 | > 100 | > 100 | > 100 | > 100 | > 100 | > 100 |  | > 100
13 | C[C@@H](NC(=O)OC1C=CC2(CC1)C(=O)N(C)c1ccccc12)c1cccc2ccccc12 (some centres undefined) | > 25 | > 25 | > 25 | > 25 | > 25 | > 25 |  | > 25 | > 25 | > 25 | > 25 | > 25 | > 25 | > 25 | > 25 | > 25
14 | CCOC(=O)c1cc(C2CCN(Cc3ccccc3)C2=O)c(C(=O)C(=[N+]=[N-])C(C)=O)[nH]1 (centres undefined) |  | > 100 | > 100 | > 100 | > 100 | > 100 | > 100 | > 100 | > 100 |  | > 100 | > 100 | > 100 | > 100 | > 100 | > 100
15 | CC12CC[C@H](O)C(C)(C)[C@H]1CC[C@](C)(O)C2COc1ccc2ccc(=O)oc2c1 (some centres undefined) |  | > 100 | > 100 | > 100 | > 100 | > 100 |  | > 100 | > 100 | > 100 | > 100 | > 100 | > 100 | > 100 |  | 
16 | Cc1ccc2c(=O)c(-c3nnc(N)s3)c[nH]c2n1 | > 100 | > 100 |  | > 100 | > 100 | > 100 | > 100 | > 100 | > 100 | > 100 | > 100 | > 100 |  | > 100 | > 100 | > 100
